{"source": "patent US20060128716A1", "about": "“Use of 4-pyridylmethyl-phthalazine derivatives for the manufacture of a medicament for the treatment of myelodysplastic syndromes” (priority 2002, published 2006)", "key": {"[1]": {"tested_on": "advanced MDS", "test": "Clinical example: oral PTK787 in patients with untreated advanced MDS", "assay_type": "in vivo, human"}, "[2]": {"molecular_target": "Flt-1 (Homo sapiens, UniProt P17948)", "sequence (P17948 27-1338, species assumed)": "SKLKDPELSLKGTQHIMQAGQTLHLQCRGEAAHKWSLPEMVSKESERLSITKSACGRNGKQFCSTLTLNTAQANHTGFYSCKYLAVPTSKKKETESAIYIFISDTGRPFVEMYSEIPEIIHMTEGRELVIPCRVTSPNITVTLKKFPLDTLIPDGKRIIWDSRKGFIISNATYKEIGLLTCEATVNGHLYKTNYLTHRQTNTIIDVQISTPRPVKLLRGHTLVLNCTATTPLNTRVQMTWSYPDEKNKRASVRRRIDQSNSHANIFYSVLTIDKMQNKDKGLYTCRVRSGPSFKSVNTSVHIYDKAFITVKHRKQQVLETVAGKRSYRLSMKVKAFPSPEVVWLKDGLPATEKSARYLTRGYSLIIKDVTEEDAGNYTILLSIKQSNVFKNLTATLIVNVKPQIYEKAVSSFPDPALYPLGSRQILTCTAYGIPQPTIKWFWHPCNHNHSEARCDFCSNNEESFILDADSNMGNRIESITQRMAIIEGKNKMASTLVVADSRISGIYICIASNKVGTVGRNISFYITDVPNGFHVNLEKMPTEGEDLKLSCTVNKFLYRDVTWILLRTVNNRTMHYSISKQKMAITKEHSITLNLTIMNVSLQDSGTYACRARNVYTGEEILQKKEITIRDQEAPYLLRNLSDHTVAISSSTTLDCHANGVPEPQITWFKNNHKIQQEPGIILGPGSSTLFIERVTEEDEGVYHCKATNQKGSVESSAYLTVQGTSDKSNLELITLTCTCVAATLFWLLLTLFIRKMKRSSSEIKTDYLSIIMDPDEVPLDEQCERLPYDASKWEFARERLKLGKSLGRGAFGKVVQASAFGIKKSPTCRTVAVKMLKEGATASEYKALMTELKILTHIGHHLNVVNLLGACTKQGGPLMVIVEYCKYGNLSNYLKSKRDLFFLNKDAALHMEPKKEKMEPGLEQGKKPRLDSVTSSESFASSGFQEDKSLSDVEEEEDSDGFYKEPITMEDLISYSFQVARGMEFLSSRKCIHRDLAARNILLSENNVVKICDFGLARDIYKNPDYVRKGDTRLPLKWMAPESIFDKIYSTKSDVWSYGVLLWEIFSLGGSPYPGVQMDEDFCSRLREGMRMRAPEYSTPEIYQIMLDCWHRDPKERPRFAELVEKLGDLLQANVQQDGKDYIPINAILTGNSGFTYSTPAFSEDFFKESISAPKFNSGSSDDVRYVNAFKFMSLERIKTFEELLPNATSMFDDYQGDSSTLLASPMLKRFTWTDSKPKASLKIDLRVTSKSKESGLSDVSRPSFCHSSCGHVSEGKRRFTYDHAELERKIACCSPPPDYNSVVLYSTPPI", "conditions": "statement in words, no test described; cited from earlier work"}, "[3]": {"molecular_target": "Flt-4 (Homo sapiens, UniProt P35916)", "sequence (P35916 25-1363, species assumed)": "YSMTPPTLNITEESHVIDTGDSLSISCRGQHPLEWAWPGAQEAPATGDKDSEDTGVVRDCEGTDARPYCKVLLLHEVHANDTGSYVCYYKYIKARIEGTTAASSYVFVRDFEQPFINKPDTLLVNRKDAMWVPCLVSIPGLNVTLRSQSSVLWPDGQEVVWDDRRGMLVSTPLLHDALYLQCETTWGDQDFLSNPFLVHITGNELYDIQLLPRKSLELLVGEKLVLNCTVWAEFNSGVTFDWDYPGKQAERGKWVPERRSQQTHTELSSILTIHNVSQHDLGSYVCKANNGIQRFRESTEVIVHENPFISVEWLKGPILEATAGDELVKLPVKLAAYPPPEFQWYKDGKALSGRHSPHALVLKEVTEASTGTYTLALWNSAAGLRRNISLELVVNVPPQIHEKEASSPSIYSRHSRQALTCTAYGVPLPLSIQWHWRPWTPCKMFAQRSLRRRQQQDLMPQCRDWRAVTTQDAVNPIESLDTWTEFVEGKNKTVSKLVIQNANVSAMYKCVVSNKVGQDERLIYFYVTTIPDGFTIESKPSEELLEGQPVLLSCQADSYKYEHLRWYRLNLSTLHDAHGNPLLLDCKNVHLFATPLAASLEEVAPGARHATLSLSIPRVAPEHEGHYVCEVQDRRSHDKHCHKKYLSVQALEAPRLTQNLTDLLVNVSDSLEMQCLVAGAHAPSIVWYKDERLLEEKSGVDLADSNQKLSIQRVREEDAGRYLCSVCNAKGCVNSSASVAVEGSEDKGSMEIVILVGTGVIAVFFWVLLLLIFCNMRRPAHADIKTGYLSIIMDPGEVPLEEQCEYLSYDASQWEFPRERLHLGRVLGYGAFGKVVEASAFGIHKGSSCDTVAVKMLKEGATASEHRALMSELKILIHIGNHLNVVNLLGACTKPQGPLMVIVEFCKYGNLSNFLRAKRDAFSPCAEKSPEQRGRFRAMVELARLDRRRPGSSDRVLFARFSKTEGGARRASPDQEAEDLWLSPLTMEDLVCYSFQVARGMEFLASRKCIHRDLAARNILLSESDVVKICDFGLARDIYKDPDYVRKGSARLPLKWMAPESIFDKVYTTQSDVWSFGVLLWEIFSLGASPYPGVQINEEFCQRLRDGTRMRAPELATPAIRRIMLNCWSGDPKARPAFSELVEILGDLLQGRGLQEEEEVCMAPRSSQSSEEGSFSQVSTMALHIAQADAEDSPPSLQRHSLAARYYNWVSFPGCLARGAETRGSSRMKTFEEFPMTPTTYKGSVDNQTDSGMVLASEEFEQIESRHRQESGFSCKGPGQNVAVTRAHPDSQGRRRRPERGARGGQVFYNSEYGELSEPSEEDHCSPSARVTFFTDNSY", "conditions": "statement in words, no test described; cited from earlier work"}, "[4]": {"molecular_target": "c-Kit (Homo sapiens, UniProt P10721)", "sequence (P10721 26-976)": "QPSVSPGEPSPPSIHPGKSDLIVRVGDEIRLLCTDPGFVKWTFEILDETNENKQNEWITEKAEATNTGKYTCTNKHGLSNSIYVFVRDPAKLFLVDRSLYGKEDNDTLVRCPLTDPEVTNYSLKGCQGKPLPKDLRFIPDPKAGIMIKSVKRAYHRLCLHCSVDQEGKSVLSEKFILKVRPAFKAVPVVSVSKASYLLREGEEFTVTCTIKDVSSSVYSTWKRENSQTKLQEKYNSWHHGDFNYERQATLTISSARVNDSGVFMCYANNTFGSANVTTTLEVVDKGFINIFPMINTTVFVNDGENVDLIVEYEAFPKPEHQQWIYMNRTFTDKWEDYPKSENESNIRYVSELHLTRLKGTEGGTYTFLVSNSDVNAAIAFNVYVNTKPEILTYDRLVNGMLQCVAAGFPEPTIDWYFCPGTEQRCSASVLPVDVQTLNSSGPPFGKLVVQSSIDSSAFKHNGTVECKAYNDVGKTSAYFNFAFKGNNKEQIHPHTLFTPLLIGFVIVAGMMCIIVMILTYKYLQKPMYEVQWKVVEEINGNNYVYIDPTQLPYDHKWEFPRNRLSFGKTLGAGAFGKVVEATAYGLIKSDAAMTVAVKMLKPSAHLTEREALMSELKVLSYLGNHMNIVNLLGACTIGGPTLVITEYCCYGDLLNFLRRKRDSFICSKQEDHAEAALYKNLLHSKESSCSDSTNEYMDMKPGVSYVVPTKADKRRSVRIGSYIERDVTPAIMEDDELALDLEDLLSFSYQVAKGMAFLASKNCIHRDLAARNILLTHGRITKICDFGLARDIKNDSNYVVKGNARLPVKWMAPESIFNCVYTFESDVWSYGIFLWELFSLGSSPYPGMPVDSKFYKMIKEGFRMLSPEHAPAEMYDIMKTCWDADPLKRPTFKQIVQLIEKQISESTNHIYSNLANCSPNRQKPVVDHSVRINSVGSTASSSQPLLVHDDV", "conditions": "statement in words, no test described; cited from earlier work"}}}
{"smiles": "Clc1ccc(Nc2nnc(Cc3ccncc3)c3ccccc23)cc1", "note": "[PTK787]", "values": [{"measurement": "disease progression in patients with MDS", "setting": "[1]; in at least some patients with MDS", "value": "slows disease progression"}, {"measurement": "patients with MDS showing stable disease with excellent performance status", "setting": "[1]; of twelve patients, 500 or 750 mg orally twice daily", "value": "Two"}, {"measurement": "bone marrow blasts", "setting": "[1]; one patient with baseline 18% bone marrow blasts, remained for 8 months, 500 or 750 mg orally twice daily", "value": "under 30%"}, {"measurement": "bone marrow blasts", "setting": "[1]; second patient with baseline 11.5% blasts, remained for 4 months, 500 or 750 mg orally twice daily", "value": "≤ 16", "unit": "%"}, {"measurement": "inhibition of Flt-1", "setting": "[2]", "value": "can also inhibit"}, {"measurement": "inhibition of Flt-4", "setting": "[3]", "value": "can also inhibit"}, {"measurement": "activity against c-Kit", "setting": "[4]", "value": "has activity against other tyrosine kinase receptors"}]}
